{"source": "patent US20120100189A1", "about": "(Teva Pharmaceutical Industries Ltd., priority 2009, published 2012)", "details": "non-polar organic solvents such as hexane toluene and ethylacetate"}
{"compound": "C#CCN[C@@H]1CCc2ccccc21", "note": "[Rasagiline base]", "values": [{"measurement": "solubility in non-polar organic solvents", "result": "very soluble"}]}
